Reference: US9145351B2, “Azole derivatives, methods for producing the same, intermediate thereof, agro-horticultural agents” (KUREHA CORPORATION, priority 2009, dated 2015)

Experiments:
[1] = tested on: Fusarium graminearum; test: whole plant or invertebrate; assay type: in vivo; details: in Triticum aestivum, 168 h, read-out: Protective value
[2] = tested on: Puccinia recondita; test: Efficacy test against wheat brown rust, 100 mg/L and 10 mg/L (Experimental Example 2); assay type: in vivo; details: nine to 14 days after inoculation; for pest or weed control at 100 µg/mL: Puccinia recondita, 336 h, 100 mg/L sprayed at 1,000 L/ha, read-out: Protective value; for efficacy compared with compound (1): 10 mg/L sprayed at 1,000 L/ha
Experimental: Onto a wheat plant (variety: NORIN No. 61) grown to the two-leaf phase using a square plastic pot (6 cm×6 cm), a wettable formulation such as Formulation Example 1 which was diluted and suspended in water at a certain concentration (100 mg/L and 10 mg/L) was sprayed at a rate of 1,000 L/ha. The sprayed leaves were air-dried, and inoculated with spore suspension of Puccinia recondita (adjusted at 200 spores/vision, […] was added at 60 ppm) by spraying, and kept at 25 degrees C. and a high humidity for 48 hours. Thereafter, the plant was kept in a greenhouse. Nine to 14 days after inoculation, the wheat brown rust lesion degree was investigated, and the protective value was calculated by the following equation. Protective value (%)=(1-lesion degree in sprayed plot/lesion degree in unsprayed plot)×100

[3] = tested on: Mucor sp.; test: Plate medium assay, industrial material deteriorating microorganism, Mucor (Experimental Example 5); assay type: cell-based; details: treatment at 50 mg/l, PDA plate medium, read-out: growth inhibition grade
Experimental: (§1) In this Experimental Example, the fungicidal effects of the inventive compounds on various phytopathogenic fungi for plants and hazardous microorganism for industrial materials were examined by the methods described below. Each inventive compound was dissolved in 2 ml of dimethyl sulfoxide. 0.6 ml of this solution was added to 60 nil of a PDA medium (potato dextrose agar medium) at about 60 degrees C., which was mixed thoroughly in a 100-ml conical flask, and poured into a dish, where it was solidified, thereby obtaining a plate medium containing the inventive compound at 50 mg/L and 5 mg/L. On the other hand, a subject microorganism previously cultured on a plate medium was cut out using a cork borer whose diameter was 4 mm, and inoculated to the test compound-containing plate medium described above. […] The growth degree of the microorganism on the test compound-containing plate medium thus observed was compared with the growth degree of the microorganism in the untreated group, and % mycelial growth inhibition was calculated by the following equation. R=100(dc-dt)/dc wherein R=% mycelial extension inhibition, dc=flora diameter in untreated plate, dt=flora diameter in treated plate. The results obtained as described above were evaluated as one of the 5 grades according to the following criteria.

[4] = tested on: Tyromyces palustris; test: Plate medium assay, wood denaturing microorganism Oouzuratake (Experimental Example 5); assay type: cell-based; details: treatment at 50 mg/l, PDA plate medium; read-out: growth inhibition grade
Experimental: as §1

[5] = tested on: Trichoderma sp.; test: Plate medium assay, industrial material deteriorating microorganism, Trichoderma (Experimental Example 5); assay type: cell-based; details: treatment at 50 mg/l, PDA plate medium, read-out: growth inhibition grade
Experimental: as §1

[6] = tested on: Aspergillus sp.; test: Plate medium assay, industrial material deteriorating microorganism, Aspergillus (Experimental Example 5); assay type: cell-based; details: treatment at 50 mg/l, PDA plate medium, read-out: growth inhibition grade
Experimental: as §1

[7] = tested on: Penicillium sp.; test: Plate medium assay, industrial material deteriorating microorganism, Penicillium (Experimental Example 5); assay type: cell-based; details: treatment at 50 mg/l, PDA plate medium, read-out: growth inhibition grade
Experimental: as §1

[8] = tested on: Botrytis cinerea; test: Efficacy test against cucumber gray mold (Experimental Example 1); assay type: in vivo; details: 96 h, four days after inoculation, read-out: Protective value; for pest or weed control at 50 µg/mL: 50 mg/L sprayed at 1,000 L/ha; for pest or weed control at 100 µg/mL: 100 mg/L sprayed at 1,000 L/ha
Experimental: Onto a cucumber (variety:SHARP1) plant in its cotyledon phase grown using a square plastic pot (6 cm×6 cm), a wettable formulation such as Formulation Example 1 which was diluted and suspended in water at a certain concentrations (100 mg/L and 50 mg/L) was sprayed at a rate of 1,000 L/ha. The sprayed leaves were air-dried, and loaded with a paper disc (8 mm in diameter) soaked in a spore suspension of Botrytis cinerea, and kept at 20 degrees C. and a high humidity. Four days after inoculation, the cucumber gray mold lesion degree was investigated, and the protective value was calculated by the following equation. Protective value (%)=(1−mean lesion degree in sprayed plot/mean lesion degree in unsprayed plot)×100

[9] = tested on: Septoria tritici; test: Microplate test of biocidal effect on wheat Septoria blotch (Experimental Example 4); assay type: cell-based; details: Zymoseptoria tritici, 240 h; % mycelium growth inhibition, absorbance 550 nm, 20 degrees C. for about 10 days; read-out: activity level (EC80)
Experimental: A spore suspension of wheat Septoria blotch (Septoria tritici) (spore concentration: 1×10^6 cells/ml) was prepared, and subjected to 100-fold dilution with a PD medium. A flat 96-well microplate was provided and 1 microliter of the test compound solution formed by dissolution in dimethyl sulfoxide (DMSO) at a concentration 100 times the test concentration was dispensed to the microplate, and then 100 microliter of the medium containing the spore was added and stirred thoroughly. […] R=100×(dc−dt)/dc: R: % mycelium growth inhibition dc: Absorbance of non-treatment zone dt: Absorbance of treatment zone

Row | SMILES | pest or weed control at 100 µg/mL [1] [%] | pest or weed control at 500 µg/mL [1] [%] | pest or weed control at 100 µg/mL [2] [%] | inhibition at 50 µg/mL [3] [%] | inhibition at 50 µg/mL [4] [%] | inhibition at 50 µg/mL [5] [%] | inhibition at 50 µg/mL [6] [%] | inhibition at 50 µg/mL [7] [%] | efficacy compared with compound (1) [2] | pest or weed control at 50 µg/mL [8] [%] | pest or weed control at 100 µg/mL [8] [%] | EC80 [9] [mg/L]
1 | CC(Cl)=C[C@]1(C)CC[C@@H](Cc2ccc(Cl)cc2)[C@]1(O)Cn1cncn1 (racemic) [Compound I-115, (1RS,2SR,5SR)-5-(4-chlorobenzyl)-2-(2-chloropropenyl)-2-methyl-1-(1H-1,2,4-triazol-1-ylmethyl)cyclopentanol] | ≥ 80 | ≥ 90 | ≥ 90 | 60 to 80 | 60 to 80 | 60 to 80 | 60 to 80 | 60 to 80 |  |  |  | 
2 | CC[C@]1(CCl)CC[C@@H](Cc2ccccc2)[C@]1(O)Cn1cncn1 (relative stereo) [Compound I-97] |  |  |  |  |  |  |  |  | higher efficacy than that of compound (1) |  |  | 
3 | C[C@]1(CCl)CC[C@@H](Cc2ccccc2F)[C@]1(O)Cn1cncn1 (relative stereo) [Compound I-86] |  |  |  |  |  |  |  |  | higher efficacy than that of compound (1) |  |  | 
4 | C[C@@]1(CCl)CC[C@@H](Cc2ccc(Cl)cc2)[C@]1(O)Cn1cncn1 (racemic) [Compound I-101] |  |  |  |  |  |  |  |  | higher efficacy than that of compound (1) |  |  | 
5 | C[C@@]1(CCl)CC[C@H](Cc2ccc(Cl)cc2)[C@]1(O)Cn1cncn1 (racemic) [Compound I-401, (1RS,2RS,5RS)-5-(4-chlorobenzyl)-2-chloromethyl-2-methyl-1-[1,2,4]triazol-1-ylmethylcyclopentanol] |  | ≥ 90 |  | 60 to 80 | 60 to 80 | 60 to 80 | 60 to 80 | 60 to 80 |  |  |  | 
6 | C[C@]1(CBr)CC[C@@H](Cc2ccccc2)[C@]1(O)Cn1cncn1 (racemic) [Compound I-602, (1RS,2SR,5SR)-2-bromomethyl-5-benzyl-2-methyl-1-(1H-1,2,4-triazol-1-ylmethyl)cyclopentanol] | ≥ 80 | ≥ 90 | ≥ 90 | 60 to 80 | 60 to 80 | 60 to 80 | 60 to 80 | 60 to 80 | higher efficacy than that of compound (1) | ≥ 80 | ≥ 80 | ≤ 0.2
7 | O[C@]1(Cn2cncn2)[C@@H](Cc2ccc(Cl)cc2)CC[C@@H]1C(F)(F)F (racemic) [Compound I-365, (1RS,2SR,5RS)-5-(4-chlorobenzyl)-2-trifluoromethyl-1-(1H-1,2,4-triazol-1-ylmethyl)cyclopentanol] |  | ≥ 90 |  | 60 to 80 | 60 to 80 | 60 to 80 | 60 to 80 | 60 to 80 |  |  |  | 
8 | C[C@]1(CCl)CC[C@@H](Cc2ccc(Cl)cc2)[C@]1(O)Cn1ccnc1 (racemic) [Compound I-244, (1RS,2SR,5SR)-5-(4-chlorobenzyl)-2-chloromethyl-2-methyl-1-imidazol-1-ylmethylcyclopentanol] |  | ≥ 90 | ≥ 90 | 60 to 80 | 60 to 80 | 60 to 80 | 60 to 80 | 60 to 80 |  |  |  | ≤ 0.2
9 | C[C@]1(CBr)CC[C@@H](Cc2ccc(F)cc2)[C@]1(O)Cn1cncn1 (racemic) [Compound I-601, (1RS,2SR,5SR)-2-bromomethyl-5-(4-fluorobenzyl)-2-methyl-1-(1H-1,2,4-triazol-1-ylmethyl)cyclopentanol] | ≥ 80 | ≥ 90 | ≥ 90 | 60 to 80 | 60 to 80 | 60 to 80 | 60 to 80 | 60 to 80 | higher efficacy than that of compound (1) | ≥ 80 | ≥ 80 | ≤ 0.2
10 | C[C@]1(CBr)CC[C@@H](Cc2ccc(Cl)cc2)[C@]1(O)Cn1cncn1 (racemic) [Compound I-25, (1RS,2SR,5SR)-2-bromomethyl-5-(4-chlorobenzyl)-2-methyl-1-(1H-1,2,4-triazol-1-ylmethyl)cyclopentanol] | ≥ 80 | ≥ 90 | ≥ 90 | 60 to 80 | 60 to 80 | 60 to 80 | 60 to 80 | 60 to 80 | higher efficacy than that of compound (1) |  | ≥ 80 | ≤ 0.2
11 | C[C@]1(CCl)CC[C@H](Cc2ccc(Cl)cc2)[C@]1(O)Cn1cncn1 (racemic) [Compound I-301, (1RS,2SR,5RS)-5-(4-chlorobenzyl)-2-chloromethyl-2-methyl-1-[1,2,4]triazol-1-ylmethylcyclopentanol] |  | ≥ 90 | ≥ 90 | 60 to 80 | 60 to 80 | 60 to 80 | 60 to 80 | 60 to 80 |  |  |  | ≤ 0.2
12 | O[C@]1(Cn2cncn2)[C@H](Cc2ccc(Cl)cc2)CC[C@@H]1C(F)(F)F (racemic) [Compound I-65, (1RS,2SR,5SR)-5-(4-chlorobenzyl)-2-trifluoromethyl-1-(1H-1,2,4-triazol-1-ylmethyl)cyclopentanol] |  | ≥ 90 | ≥ 90 | 60 to 80 | 60 to 80 | 60 to 80 | 60 to 80 | 60 to 80 |  |  | ≥ 80 | 
13 | Cc1ccc(C[C@@H]2CC[C@](C)(CCl)[C@@]2(O)Cn2cncn2)cc1 (relative stereo) [Compound I-80] |  |  |  |  |  |  |  |  | higher efficacy than that of compound (1) |  |  | 
14 | O[C@]1(Cn2cncn2)[C@H](Cc2ccc(Cl)cc2)CCC1(CCl)CCl (relative stereo) [Compound I-203, cis-5-(4-chlorobenzyl)-2,2-bis(chloromethyl)-1-(1H-1,2,4-triazol-1-yl)methylcyclopentanol] |  |  |  |  |  |  |  |  | higher efficacy than that of compound (1) |  |  | 
15 | C[C@]1(CCl)CC[C@@H](Cc2ccc(OC(F)(F)F)cc2)[C@]1(O)Cn1cncn1 (relative stereo) [Compound I-79] |  |  |  |  |  |  |  |  | higher efficacy than that of compound (1) |  |  | 
16 | CC[C@]1(CCl)CC[C@@H](Cc2ccc(Cl)cc2)[C@]1(O)Cn1cncn1 (racemic) [Compound I-36, (1RS,2SR,5SR)-5-(4-chlorobenzyl)-2-chloromethyl-2-ethyl-1-(1H-1,2,4-triazol-1-ylmethyl)cyclopentanol] | ≥ 80 | ≥ 90 | ≥ 90 | 60 to 80 | 60 to 80 | 60 to 80 | 60 to 80 | 60 to 80 | higher efficacy than that of compound (1) |  |  | ≤ 0.2
